Data on 5 compounds can be found in patent publication US6093805A, “Glycoside compounds and methods of synthesis” (The Regents of the University of Michigan, priority 1997, dated 2000).

Each structure is given as a SMILES string. ≈ marks a conversion by molar mass, not a printed value. Counter-ions that a name gives are not always drawn.

Data set [1] in a line: Solubility in 14 mM phosphate buffered saline pH 7.4 at 23° C. The class given is physicochemical. Particulars: aqueous buffer, 14 mM PBS pH 7.4, OD at 250 nm of supernatant, read-out: maximum solubility. As for the experimental part:
The solubility of the two acetaminophen derivatives (Examples 9 and 10) in 14 mM phosphate buffered saline (PBS) pH 7.4 was determined and compared with the solubility of non-derivatized acetaminophen. It was determined that the two acetaminophen derivatives had much greater solubility than that of the non-derivatized acetaminophen. All work was performed at 23° C.
Method: The solubility of both derivatives was determined by continual addition, with agitation, of the derivatives to a known amount of buffer. When a significant precipitate was observed, the respective solutions were centrifuged and the optical density at 250 nm of the resulting clear supernatant was determined. From the optical density of the supernatant, the concentration was obtained by comparison with non-derivatized acetaminophen standard curves.

Data set [2] concerns cancer diseases of several phenotypes. Particulars: cited from earlier work.
In data set [3] the test system is cancer cells of representative phenotypes. Particulars: cited from earlier work.
Another data set deals with K-562. The data set is described as follows: Tumor cell growth inhibition in K-562 cell culture (FIG. 8). Type of data set: cell-based. The settings on record: K-562 culture fluid; 1/10 (0.4 mg/mL), 1/80 (0.03 mg/mL), 1/320 (0.007 mg/mL); plot FIG. 8.
For data set [4] the following is noted: in vivo; cited from earlier work.
For another data set, the system named is cancer cells. The settings on record: cited from earlier work.

Take `CC(=O)Nc1ccc(O[C@@H]2C=C[C@H](O[C@H]3O[C@H](CO)[C@@H](O)[C@H](O)[C@H]3O)[C@@H](CO)O2)cc1` [Example 9, p-Acetoamidophenyl 4-O-(α-D-glucopyranosyl)-2,3-dideoxy-α-D-erythro-hex-2-enopyranoside]: the solubility in data set [1] is 60 mg/mL (≈ 136 mM).
On the same count and under the same terms, for `CC(=O)Nc1ccc(O[C@@H]2C=C[C@H](O[C@@H]3O[C@H](CO)[C@H](O)[C@H](O)[C@H]3O)[C@@H](CO)O2)cc1` [Example 10, p-Acetoamidophenyl 4-O-(β-D-galactopyranosyl)-2,3-dideoxy-O-D-erythro-hex-2-enopyranoside] the value was 55 mg/mL (≈ 125 mM); for `CC(=O)Nc1ccc(O)cc1` [acetaminophen, 4-acetamidophenol], 7 mg/mL (≈ 46.3 mM).
Take `CC(C)CCC[C@@H](C)[C@H]1CC[C@H]2[C@@H]3[C@@H](O)C=C4C[C@@H](O)CC[C@]4(C)[C@H]3CC[C@]12C` [7β-hydroxycholesterol, 5-cholestene-3β,7β-diol]: the “side effects in treatment of cancer diseases” value in data set [2] (in vivo) was “free of side effects”. For the same compound, the “treatment of cancer diseases” value in data set [2] (several phenotypes) is on record as “successfully employed”. In data set [3], the “effect on healthy cells” value is recorded as “not affecting healthy cells”. Besides, in data set [3] (substantially non-toxic dosage), the “elimination of cancer cells” value is “effective at substantially non-toxic dosage and capable of eliminating cancer cells of representative phenotypes”. In the data set on K-562, the “tumor cell growth inhibition” value is “tumor cell growth inhibition”.
For `CC(C)CCC[C@@H](C)[C@H]1CC[C@H]2[C@@H]3[C@@H](OC(=O)CCC(=O)O)C=C4C[C@@H](OC(=O)CCC(=O)O)CC[C@]4(C)[C@H]3CC[C@]12C` [7β-OHC bishemisuccinate colamine salt], in data set [4], the normalizing effects entry is “drive-enhancing (stimulating) activity as well as a tranquilizing activity”. The “inhibition of proliferative phase growth of cancer cells” value in the data set with cancer cells (clinical studies, low parenteral dosage) is on record as “selectively inhibit the proliferative phase growth of cancer cells”. Also, in the data set with cancer cells (in vivo), the side effects result is reported as “without substantial side effects”.

One may read the solubility as how much of the substance goes into solution per volume.
